# According to publication PMC6327987, “Synthesis and biological evaluation of novel N^9-heterobivalent β-carbolines as angiogenesis inhibitors” (Journal of Enzyme Inhibition and Medicinal Chemistry, 2019):
# Several values for one entry are separate records, joined by “and”; a condition that tells them apart may be missing. Equal entries are not always repeated. Entries after “also recorded” stand apart in the source; their conditions may differ.
# Tests used:
# [1] = system: BGC-823; assay: MTT cytotoxicity, gastric carcinoma cells; assay type: cell-based; conditions: Homo sapiens; MTT assay, gastric carcinoma BGC-823, mean ± SD of at least three determinations
# Description: (§1) Target compounds were assayed by the MTT method for cytotoxic activity, as described previously. The panel of cell lines included gastric carcinoma (BGC-823), liver carcinoma (HepG2), breast carcinoma (MCF-7), colon carcinoma (HT-29), esophageal carcinoma (Eca-109), and Lewis lung carcinoma (LLC). Growth inhibition rates were calculated with the following equitation: Inhibition ratio (%)= ODcompd−ODblank/ODDMSO−ODblank×100% . Half maximal inhibitory concentration (IC50) of each compound was calculated using software Graph-Pad Prism (version 6.0).
# (§2) All the 24 novel synthesized N^9-heterobivalent β-carbolines (5a-x) were screened for their in vitro cytotoxic activities against six different cancer cell lines, namely BGC-823 (gastric carcinoma), HepG2 (liver carcinoma), MCF-7 (breast carcinoma), HT-29 (colon carcinoma), Eca-109 (esophageal carcinoma) and LLC (Lewis lung carcinoma). The IC50 values were the average of at least three independent experiments.
# [2] = system: HepG2; assay: MTT cytotoxicity, liver carcinoma cells; assay type: cell-based; conditions: Homo sapiens; MTT assay, liver carcinoma HepG2, mean ± SD of at least three determinations
# Description: as §1, §2
# [3] = system: MCF-7; assay: MTT cytotoxicity, breast carcinoma cells; assay type: cell-based; conditions: Homo sapiens, MCF7; MTT assay, breast carcinoma MCF-7, mean ± SD of at least three determinations
# Description: as §1, §2
# [4] = system: HT-29; assay: MTT cytotoxicity, colon carcinoma cells; assay type: cell-based; conditions: Homo sapiens; MTT assay, colon carcinoma HT-29, mean ± SD of at least three determinations
# Description: as §1, §2
# [5] = system: Eca-109; assay: MTT cytotoxicity, esophageal carcinoma cells; assay type: cell-based; conditions: Homo sapiens, ECa-109, MTT assay, esophageal carcinoma Eca-109, mean ± SD of at least three determinations
# Description: as §1, §2
# [6] = system: LLC; assay: MTT cytotoxicity, Lewis lung carcinoma cells; assay type: cell-based; conditions: Lewis lung carcinoma, MTT assay, mean ± SD of at least three determinations
# Description: as §1, §2
# [7] = system: KM mice; assay: Acute toxicity in mice (i.p.); assay type: in vivo; conditions: for Acute toxicity Neurotoxic effect: KM mice, intraperitoneal; for Acute toxicity LD50: both, KM, mouse, in vivo, ip, 14 days
# Description: Specific pathogen-free KM mice (6–8 weeks old) weighing 19–22 g were housed in a mouse room at 24 ± 2 °C and 60–70% humidity with 12 h light/dark cycles. The mice were provided rodent laboratory chow pellets and tap water for a week to adapt to the environment of the mouse room. The experimental protocol was approved by the Institutional Animal Ethical Committee, and all of the animals were provided by Laboratory Animal Center of Xinjiang Uygur Autonomous Region. Prior to each experiment, mice were fastened overnight and allowed free access to water. Various doses of the asymmetric dimeric β-carboline derivatives, ranging from 5.0 to 500 mg kg^−1 dissolved in 0.5% carboxymethyl cellulose sodium (CMC-Na) salt solution, were given intraperitoneally to different groups of healthy KM mice, and each group contained 10 mice (5 males and 5 females). After the administration of the compounds, the mice were observed continuously for the first 2 h for any gross behavioral changes and deaths, then intermittently for the next 24 h, and occasionally thereafter for 14 days, and for the onset of any delayed effects. All of the animals were killed on the 14th day after drug administration, and they were checked macroscopically for possible damage to the heart, liver, and kidneys. Mice that experienced immediate death following drug administration were also examined for any possible organ damage. LD50 values were calculated graphically as described.
# The LD50 values of the selected N^9-heterobivalent β-carbolines in mice after intraperitoneal (i.p.) administration are shown in Table 2. […] Death occurred mostly in the high dosage group within 4–8 h after injection. All of the surviving animals returned to normal within the next day.
# [8] = system: angiogenesis of CAM; assay: Chicken chorioallantoic membrane (CAM) angiogenesis assay; assay type: in vivo; conditions: gelatin sponge discs 0.5, 5.0 and 50 µM/disc, 48 h, blood vessels counted
# Description: Anti-angiogenic activity of the selected compounds 5b and 5w were investigated in vivo using a CAM assay. Five-day-old fertilized eggs were obtained from a local hatchery. We injected 5 ml of albumin, and the eggs were incubated horizontally to allow the CAM to detach from the shell to produce a sham chamber. Compounds 5b and 5w were prepared in gelatin sponge discs (5 × 5 × 5 mm^3) at the concentration of 0.5, 5.0, and 50 µM/disc, respectively. CA4P was used as the positive control drug. Discs containing the vehicle only (DMSO) were used as the negative control. A small window opening was made in the shell, and the discs were directly applied onto the CAM. The square opening was covered with sterilized surgical tape and the embryos were incubated for 48 h at 38.5 °C. The CAMs were photographed under a dissecting microscope and blood vessels in each CAM were counted. The results are presented as a mean percentage of inhibition to the control ± SD, (n = 3).
# The anti-angiogenetic activity of compounds 5b and 5w were semi-quantitatively analyzed using Graph Pad Prism 5.0 (shown in Figure 2(B)).
# [9] = system: six tumor cell lines (BGC-823, HepG2, MCF-7, HT-29, Eca-109, LLC); assay: MTT cytotoxicity, panel of six tumour cell lines (summary statements); assay type: cell-based; conditions: MTT assay, statement over all cell lines tested; read-out: IC50 against the tested six tumor cell lines
# Description: as §1, §2
# [10] = system: Sarcoma 180; assay: In vivo antitumor activity, Sarcoma 180-bearing mice; conditions: i.p. once a day for seven days at the dosage of Table 2 (about one-fifth of LD50; CTX 30 mg kg^−1), tumour weight day 21, mean ± SD
# Description: Sarcoma180 and Lewis lung cancer cell lines were provided by Shanghai Institute of Pharmaceutical Industry. Mice were inoculated with Sarcoma180 and Lewis lung cancer tumour cells. After 7 days, the tumours were removed and the cells were harvested. Mice received subcutaneous injections of viable tumour cells (2 × 10^6 cells/mouse) in the armpit. […] CTX at 30 mg kg^−1 was used as the positive control and the vehicle as the negative control. The weight of the animals was recorded every three days. All of the animals were killed on the 21st day after tumour inoculation, and the tumours were excised and weighed. The inhibition rate was calculated as follows: (C−T)/C×100 where T is the average tumor weight of the treated group and C is the average tumor weight of the negative control group.
Structure (SMILES),melting point,IC50 [1],IC50 [2],IC50 [3],IC50 [4],IC50 [5],IC50 [6],Acute toxicity Neurotoxic effect [7],Acute toxicity LD50 [7],Anti-angiogenic effect in CAM assay (in words) [8],IC50 [9],Tumor inhibition rate (%) Sarcoma 180 [10]
"COc1ccc2c3ccnc(C)c3n(CCCCn3c4ccccc4c4ccnc(-c5cccs5)c43)c2c1 [Compound 5w, 7-methoxy-1-methyl-9–(4-(1–(2-thienyl)-β-carboline-9-yl)butyl)-β-carboline]",–,16.5 ± 1.9 µM,15.4 ± 2.7 µM,14.1 ± 1.4 µM,13.1 ± 3.5 µM,15.4 ± 1.9 µM,13.1 ± 2.4 µM,+,50 mg/kg,inhibited angiogenesis,< 20 µM,–
"Cc1nccc2c3ccccc3n(CCCCn3c4ccccc4c4ccnc(-c5cccnc5)c43)c12 [Compound 5b, 1–(3-pyridyl)-9–(4-(1-methyl-β-carboline-9-yl)butyl)-β-carboline]",–,12.1 ± 2.3 µM,15.9 ± 1.4 µM,8.4 ± 1.7 µM,12.6 ± 1.2 µM,10.5 ± 1.3 µM,12.4 ± 2.1 µM,–^b,150 mg/kg,could inhibit the angiogenesis of CAM; also recorded: inhibited angiogenesis,< 20 µM,–
"Cc1nccc2c3ccccc3n(CCCCCn3c4ccccc4c4ccnc(-c5cccnc5)c43)c12 [Compound 5c, 1–(3-pyridyl)-9–(5-(1-methyl-β-carboline-9-yl)pentyl)-β-carboline]",–,22.6 ± 1.9 µM,10.5 ± 2.1 µM,15.3 ± 2.6 µM,13.3 ± 2.4 µM,25.3 ± 3.2 µM,5.7 ± 1.2 µM,–,175 mg/kg,–,–,33.6% and 33.6 ± 9.2%
"COc1ccc2c3ccnc(C)c3n(CCCCn3c4ccccc4c4ccnc(C)c43)c2c1 [Compound 5s, 7-methoxy-1-methyl-9–(4-(1-methyl-β-carboline-9-yl)butyl)-β-carboline]",188.7 to 189.4 °C,17.9 ± 1.1 µM,37.6 ± 5.8 µM,36.4 ± 2.1 µM,11.1 ± 0.8 µM,11.3 ± 2.7 µM,6.2 ± 0.6 µM,–,–,–,–,–
"Cc1nccc2c3ccccc3n(CCCCCn3c4ccccc4c4ccnc(-c5cccs5)c43)c12 [Compound 5g, 1–(2-thienyl)-9–(5-(1-methyl-β-carboline-9-yl)pentyl)-β-carboline]",158.4 to 159.2 °C,97.6 ± 12.4 µM,18.8 ± 2.3 µM,75.5 ± 10.7 µM,32.3 ± 5.3 µM,30.8 ± 3.2 µM,22.7 ± 1.4 µM,–,–,–,18.8 to 97.6 µM,–
"COc1ccc2c3ccnc(C)c3n(CCCCCn3c4ccccc4c4ccnc(C)c43)c2c1 [Compound 5t, 7-methoxy-1-methyl-9–(5-(1-methyl-β-carboline-9-yl)pentyl)-β-carboline]",–,42.7 ± 2.9 µM,31.6 ± 2.2 µM,17.6 ± 3.4 µM,4.5 ± 0.6 µM,51.9 ± 7.4 µM,3.1 ± 0.4 µM,+,35 mg/kg,–,–,37.2% and 37.2 ± 4.4%
"COc1ccc2c3ccnc(C)c3n(CCCCCn3c4ccccc4c4ccnc(-c5cccnc5)c43)c2c1 [Compound 5v, 7-methoxy-1-methyl-9–(5-(1–(3-pyridyl)-β-carboline-9-yl)pentyl)-β-carboline]",183.6 to 184.9 °C,23.2 ± 1.5 µM,31.1 ± 3.4 µM,18.7 ± 0.5 µM,13.5 ± 2.2 µM,13.2 ± 3.6 µM,11.8 ± 1.8 µM,–,–,–,–,–
"COc1ccc(-c2nccc3c4ccccc4n(CCCCn4c5ccccc5c5ccnc(-c6cccs6)c54)c23)cc1OC [Compound 5p, 1–(3,4-dimethoxyphenyl)-9–(4-(1–(2-thienyl)-β-carboline-9-yl)butyl)-β-carboline]",217.2 to 218.4 °C,> 100 µM,> 100 µM,> 100 µM,> 100 µM,> 100 µM,> 100 µM,–,–,–,–,–

# Further lines, with some results ahead:
melting point,Structure (SMILES),IC50 [1],IC50 [2],IC50 [3],IC50 [4],IC50 [5],IC50 [6],Acute toxicity Neurotoxic effect [7],Acute toxicity LD50 [7],Anti-angiogenic effect in CAM assay (in words) [8],IC50 [9],Tumor inhibition rate (%) Sarcoma 180 [10]
232 to 232.8 °C,"Cc1nccc2c3ccccc3n(CCCCn3c4ccccc4c4ccnc(-c5ccccc5Cl)c43)c12 [Compound 5i, 1–(2-chlorophenyl)-9–(4-(1-methyl-β-carboline-9-yl)butyl)-β-carboline]",37.9 ± 4.2 µM,23.9 ± 3.7 µM,95.5 ± 14.8 µM,28.3 ± 1.6 µM,23.4 ± 4.1 µM,44.7 ± 3.6 µM,–,–,–,18.8 to 97.6 µM,–
177.6 to 178.9 °C,"Clc1ccccc1-c1nccc2c3ccccc3n(CCCCn3c4ccccc4c4ccnc(-c5cccnc5)c43)c12 [Compound 5n, 1–(2-chlorophenyl)-9–(4-(1–(3-pyridyl)-β-carboline-9-yl)butyl)-β-carboline]",> 100 µM,> 100 µM,86.9 ± 15.3 µM,72.2 ± 5.2 µM,> 100 µM,> 100 µM,–,–,–,–,–
173.3 to 175.1 °C,"c1cncc(-c2nccc3c4ccccc4n(CCCCn4c5ccccc5c5ccncc54)c23)c1 [Compound 5a, 1–(3-pyridyl)-9–(4-(β-carboline-9-yl)butyl)-β-carboline]",> 100 µM,39.1 ± 5.4 µM,> 100 µM,> 100 µM,> 100 µM,> 100 µM,–,–,–,–,–
